Reference: patent US20240270762A1, “PENICILLIN-BINDING PROTEIN INHIBITORS” (priority 2021, published 2024)
pIC50: −log10 of the molar value. In brackets after ≈: the same amount, converted by molar mass.

Tests used:
[1] = system: K. pneumoniae 848844; assay: microbe, parasite or virus in culture; assay type: cell-based; details: Klebsiella pneumoniae, 848844, read-out: MIC K. pneumoniae 848844
[2] = system: K. pneumoniae SI-117; assay: microbe, parasite or virus in culture; assay type: cell-based; details: Klebsiella pneumoniae, SI117, read-out: MIC K. pneumoniae SI-117
[3] = system: N. gonorrhoeae FA1090; assay: Liquid broth MIC in Fastidious broth; details: Neisseria gonorrhoeae, FA1090, read-out: Minimum Inhibitory Concentration (MIC), N. gonorrhoeae FA 1090
[4] = system: E. coli AG100; assay: microbe, parasite or virus in culture; assay type: cell-based; details: Escherichia coli, AG100, read-out: MIC E. coli AG100
[5] = system: E. coli 901C; assay: microbe, parasite or virus in culture; assay type: cell-based; details: Escherichia coli, read-out: MIC E. coli 901C
[6] = system: N. gonorrhoeae WHO Q; assay: Liquid broth MIC in Fastidious broth; details: Neisseria gonorrhoeae, read-out: Minimum Inhibitory Concentration (MIC), N. gonorrhoeae WHO Q
[7] = molecular target: T1, PBP3 from Pseudomonas aeruginosa (PAO1) (Pseudomonas aeruginosa, UniProt G3XD46); assay: Bocillin-FL fluorescence polarization competition binding, P. aeruginosa PBP3; details: Binding affinity to P. aeruginosa PBP3; fluorescence polarization competition binding assay using Bocillin-FL; read-out: P. aeruginosa PBP3 Potency
T1 construct: made in house
T1 sequence (G3XD46 whole entry): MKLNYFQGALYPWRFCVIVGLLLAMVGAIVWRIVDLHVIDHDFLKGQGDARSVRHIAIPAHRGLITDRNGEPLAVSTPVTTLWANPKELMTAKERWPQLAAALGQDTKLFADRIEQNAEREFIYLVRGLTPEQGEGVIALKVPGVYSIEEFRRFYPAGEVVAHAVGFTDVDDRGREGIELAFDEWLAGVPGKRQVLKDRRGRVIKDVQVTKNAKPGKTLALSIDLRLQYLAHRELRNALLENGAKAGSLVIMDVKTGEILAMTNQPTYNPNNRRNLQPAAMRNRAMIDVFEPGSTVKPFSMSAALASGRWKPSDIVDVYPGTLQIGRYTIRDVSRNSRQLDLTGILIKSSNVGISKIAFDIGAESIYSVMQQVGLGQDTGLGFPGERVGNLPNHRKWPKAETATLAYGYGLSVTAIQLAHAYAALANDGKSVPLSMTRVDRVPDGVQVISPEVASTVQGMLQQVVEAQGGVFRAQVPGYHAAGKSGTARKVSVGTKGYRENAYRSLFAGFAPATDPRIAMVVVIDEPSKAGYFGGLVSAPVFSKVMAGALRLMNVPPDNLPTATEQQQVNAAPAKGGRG
How it was run: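 Purified PBPs pre-incubated with inhibitor (E. coli PBP3 1.5 μM, 30 min; P. aeruginosa PBP3 0.75 μM, A. baumannii PBP1a 1 μM and PBP3 0.2 μM, 15 min), then Bocillin-FL 0.1 μM (0.05 μM for PBP1a) added; FP read up to 60 min. EC50 = concentration halving bound Bocillin-FL.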

[8] = system: E. coli AG100A; assay: Broth microdilution MIC in CAMHB; assay type: cell-based; details: Escherichia coli, read-out: MIC E. coli AG100A
[9] = system: N. gonorrhoeae WHO Z; assay: Liquid broth MIC in Fastidious broth; details: Neisseria gonorrhoeae, read-out: Minimum Inhibitory Concentration (MIC), N. gonorrhoeae WHO Z
Description: Additional antibacterial testing of the series was performed in 8 reference strains of N. gonorrhoeae (ATCC 49226, FA1090, MS 11, WHO G, WHO L, WHO M, WHO K, WHO X, WHO Z, WHO Q, CDC-0197). ATCC 49226, FA1090, MS11, WHO G, WHO L, and WHO M produce wild type or wild-type like PBP2. WHO K, WHO X, WHO Z, WHO Q, and CDC-0197 produce mosaic PBP2. Liquid broth-based assays were used for antibacterial testing of PBP inhibitors in Neisseria gonorrhoeae. Briefly, cryo-preserved bacterial cultures of clinical strains were streaked for isolation on Chocolate Agar (72 g/L (2×) GC Agar Base (BD #228950) and 2% (2×) Hemoglobin was autoclaved at 121° C. for 20 minutes to sterilize. Once cooled to ˜50° C. the 2×GC Agar Base and 2× Hemoglobin solutions are combined and 1% IsoVitaleX Enrichment (BD #211876) was added to the solution). Strains were incubated at 36° C. and 5% CO2 to allow growth of colonies, 24 hours before inoculum preparation. 2-fold serial dilutions of test compounds were conducted in a 96 well plate with a final volume of 75 μL per well at 2-fold the final desired concentration in Fastidious broth (Remel #R07664). For preparation of assay inoculum, a direct suspension was prepared by aseptically swabbing 10-15 colonies from agar plates into culture tubes containing 2 mL of fresh sterile saline. After the dilution plates were set up, direct suspensions were then diluted in a cuvette containing sterile saline and the optical density was measured at 600 nm. Inocula were diluted such that 75 μL of this culture in Fastidious broth results in a starting bacterial concentration of 5×10^5 CFU/mL when added to the dilution plates. The plates were incubated for ˜24 hours at 36° C. and 5% CO2.

[10] = system: P. aeruginosa ATCC 35151; assay: microbe, parasite or virus in culture; assay type: cell-based; details: Pseudomonas aeruginosa, ATCC35151, read-out: MIC P. aeruginosa ATCC 35151
[11] = system: N. gonorrhoeae ATCC 49226; assay: Liquid broth MIC in Fastidious broth; details: Neisseria gonorrhoeae, ATCC49226, read-out: Minimum Inhibitory Concentration (MIC), N. gonorrhoeae ATCC 49226
[12] = system: N. gonorrhoeae WHO X; assay: Liquid broth MIC in Fastidious broth; details: Neisseria gonorrhoeae, read-out: Minimum Inhibitory Concentration (MIC), N. gonorrhoeae WHO X
[13] = system: A. baumannii ATCC 19606; assay: microbe, parasite or virus in culture; assay type: cell-based; details: Acinetobacter baumannii, ATCC19606, read-out: MIC, A. baumannii ATCC 19606
[14] = system: P. aeruginosa (ΔmexAB-oprM); assay: Broth microdilution MIC in CAMHB; assay type: cell-based; details: Pseudomonas aeruginosa; read-out: MIC P. aeruginosa ΔmexAB-oprM
[15] = system: N. gonorrhoeae WHO L; assay: Liquid broth MIC in Fastidious broth; details: Neisseria gonorrhoeae, read-out: Minimum Inhibitory Concentration (MIC), N. gonorrhoeae WHO L
[16] = system: N. gonorrhoeae WHO M; assay: Liquid broth MIC in Fastidious broth; details: Neisseria gonorrhoeae, read-out: Minimum Inhibitory Concentration (MIC), N. gonorrhoeae WHO M

SMILES	MIC [1]	MIC [2]	MIC [3]	MIC [4]	MIC [5]	MIC [6]	pIC50 [7]	MIC [8]	MIC [9]	MIC [10]	MIC [11]	MIC [12]	MIC [13]	MIC [14]	MIC [15]	MIC [16]
CC(=O)NC(C(=O)N[C@H]1Cc2cccc(C(=O)O)c2OB1O)c1ccc(P(=O)(O)O)cc1 (stereo partly drawn) [Example 26, (3R)-3-(2-acetamido-2-(4-phosphonophenyl)acetamido)-2-hydroxy-3,4-dihydro-2H-benzo[e][1,2]oxaborinine-8-carboxylic acid]	> 128 µg/mL	> 128 µg/mL	16 to 32 µg/mL (≈ 34.6 to 69.2 µM)	> 128 µg/mL	8 to 16 µg/mL (≈ 17.3 to 34.6 µM)	16 to 32 µg/mL (≈ 34.6 to 69.2 µM)	3.60 to 4.30	32 to 64 µg/mL (≈ 69.2 to 138 µM)	16 to 32 µg/mL (≈ 34.6 to 69.2 µM)	8 to 16 µg/mL (≈ 17.3 to 34.6 µM)	16 to 32 µg/mL (≈ 34.6 to 69.2 µM)	16 to 32 µg/mL (≈ 34.6 to 69.2 µM)	> 128 µg/mL	> 128 µg/mL	16 to 32 µg/mL (≈ 34.6 to 69.2 µM)	4 to 8 µg/mL (≈ 8.66 to 17.3 µM)
CCC(=O)NC(C(=O)N[C@H]1Cc2cccc(C(=O)O)c2OB1O)c1ccc(P(=O)(O)O)cc1 (stereo partly drawn) [Example 27, (3R)-2-hydroxy-3-(2-(4-phosphonophenyl)-2-propionamidoacetamido)-3,4-dihydro-2H-benzo[e][1,2]oxaborinine-8-carboxylic acid]	> 128 µg/mL	> 128 µg/mL	4 to 8 µg/mL (≈ 8.4 to 16.8 µM)	> 128 µg/mL	8 to 16 µg/mL (≈ 16.8 to 33.6 µM)	16 to 32 µg/mL (≈ 33.6 to 67.2 µM)	4.30 to 5.00	> 128 µg/mL	16 to 32 µg/mL (≈ 33.6 to 67.2 µM)	8 to 16 µg/mL (≈ 16.8 to 33.6 µM)	16 to 32 µg/mL (≈ 33.6 to 67.2 µM)	16 to 32 µg/mL (≈ 33.6 to 67.2 µM)	> 128 µg/mL	> 128 µg/mL	16 to 32 µg/mL (≈ 33.6 to 67.2 µM)	4 to 8 µg/mL (≈ 8.4 to 16.8 µM)
CC(C)C(=O)NC(C(=O)N[C@H]1Cc2cccc(C(=O)O)c2OB1O)c1ccc(P(=O)(O)O)cc1 (stereo partly drawn) [Example 28, (3R)-2-hydroxy-3-(2-isobutyramido-2-(4-phosphonophenyl)acetamido)-3,4-dihydro-2H-benzo[e][1,2]oxaborinine-8-carboxylic acid]	> 128 µg/mL	> 128 µg/mL	4 to 8 µg/mL (≈ 8.16 to 16.3 µM)	> 128 µg/mL	8 to 16 µg/mL (≈ 16.3 to 32.6 µM)	16 to 32 µg/mL (≈ 32.6 to 65.3 µM)	4.30 to 5.00	> 128 µg/mL	16 to 32 µg/mL (≈ 32.6 to 65.3 µM)	8 to 16 µg/mL (≈ 16.3 to 32.6 µM)	16 to 32 µg/mL (≈ 32.6 to 65.3 µM)	16 to 32 µg/mL (≈ 32.6 to 65.3 µM)	> 128 µg/mL	> 128 µg/mL	16 to 32 µg/mL (≈ 32.6 to 65.3 µM)	4 to 8 µg/mL (≈ 8.16 to 16.3 µM)
CC(C)(C)C(=O)NC(C(=O)N[C@H]1Cc2cccc(C(=O)O)c2OB1O)c1ccc(P(=O)(O)O)cc1 (stereo partly drawn) [Example 29, (3R)-2-hydroxy-3-(2-(4-phosphonophenyl)-2-pivalamidoacetamido)-3,4-dihydro-2H-benzo[e][1,2]oxaborinine-8-carboxylic acid]	> 128 µg/mL	> 128 µg/mL	4 to 8 µg/mL (≈ 7.93 to 15.9 µM)	> 128 µg/mL	8 to 16 µg/mL (≈ 15.9 to 31.7 µM)	16 to 32 µg/mL (≈ 31.7 to 63.5 µM)	4.30 to 5.00	> 128 µg/mL	16 to 32 µg/mL (≈ 31.7 to 63.5 µM)	2 to 4 µg/mL (≈ 3.97 to 7.93 µM)	16 to 32 µg/mL (≈ 31.7 to 63.5 µM)	16 to 32 µg/mL (≈ 31.7 to 63.5 µM)	32 to 64 µg/mL (≈ 63.5 to 127 µM)	8 to 16 µg/mL (≈ 15.9 to 31.7 µM)	16 to 32 µg/mL (≈ 31.7 to 63.5 µM)	4 to 8 µg/mL (≈ 7.93 to 15.9 µM)
O=C(O)c1cccc2c1OB(O)[C@@H](NC(=O)C(NC(=O)C1CC1)c1ccc(P(=O)(O)O)cc1)C2 (stereo partly drawn) [Example 30, (3R)-3-(2-(cyclopropanecarboxamido)-2-(4-phosphonophenyl)acetamido)-2-hydroxy-3,4-dihydro-2H-benzo[e][1,2]oxaborinine-8-carboxylic acid]	> 128 µg/mL	> 128 µg/mL	4 to 8 µg/mL (≈ 8.19 to 16.4 µM)	> 128 µg/mL	8 to 16 µg/mL (≈ 16.4 to 32.8 µM)	16 to 32 µg/mL (≈ 32.8 to 65.5 µM)	3.60 to 4.30	> 128 µg/mL	16 to 32 µg/mL (≈ 32.8 to 65.5 µM)	8 to 16 µg/mL (≈ 16.4 to 32.8 µM)	16 to 32 µg/mL (≈ 32.8 to 65.5 µM)	16 to 32 µg/mL (≈ 32.8 to 65.5 µM)	> 128 µg/mL	> 128 µg/mL	16 to 32 µg/mL (≈ 32.8 to 65.5 µM)	4 to 8 µg/mL (≈ 8.19 to 16.4 µM)
